Structures can show the parent of a compound that is named as a salt.
Legend:
[1] = in vitro dissolution test of Drug 2 compositions in Model Fasted Duodenal solution; assay type: physicochemical; conditions: for AUC / Drug 2 Concentration: MFD solution, 200 μg/mL if all dissolved; for Drug 2 Concentration: 37° C.
Experimental: (§1) The solid compositions of Examples 1-2 were evaluated in an in vitro dissolution test to ascertain concentration enhancement of Drug 1. A […] sample of each solid composition was added in duplicate to a microcentrifuge tube, so that the total concentration of Drug 1 would have been 2000 μg/mL if all of the drug had dissolved. The tubes were placed in a 37° C. temperature-controlled chamber, and 1.8 mL PBS containing 0.5 wt % sodium taurocholic acid and 1-palmitoyl-2-oleyl-sn-glycero-3-phosphocholine (NaTC/POPC, with a 4/1 weight ratio) at pH 6.5 and 290 mOsm/kg (simulating a Model Fasted Duodenal solution) was added to each respective tube. The samples were quickly mixed using a vortex mixer for about 60 seconds. The samples were centrifuged at 13,000 G at 37° C. for 1 minute. The resulting supernatant solution was then sampled and diluted 1:6 (by volume) with methanol and then analyzed by high-performance liquid chromatography (HPLC). The contents of each respective tube were mixed on a vortex mixer and allowed to stand undisturbed at 37° C. until the next sample was taken. Samples were collected at 4, 10, 20, 40, 90, and 1200 minutes.
Examples 3-4 were tested by in vitro dissolution tests to ascertain concentration enhancement of Drug 2 as in Examples 1-2, except that a sufficient amount of material was added to the Model Fasted Duodenal solution to obtain a drug concentration of 200 μg/mL if all of the drug dissolved. As a control (C2), crystalline Drug 2 alone was used.
The concentrations of drug obtained in these samples were used to determine the MDC90 and the AUC90 during the initial 90 minutes.

[2] = Log P of the drug; conditions: for logP: octanol/water, Log P
Description: A common measure of hydrophobicity is Log P, defined as the base 10 logarithm of the ratio of the drug solubility in octanol to the drug solubility in water. Log P may be measured experimentally or calculated using methods known in the art.

[3] = glass transition temperature (Tg) of the drug; assay type: physicochemical; conditions: for Tg: Table B, unless noted Tg measured at less than 10% RH
Experimental: In a first aspect, the invention comprises a solid composition comprising a plurality of particles. The particles comprise a low-solubility drug and a poloxamer. The drug is in intimate contact with the poloxamer in the particles. Collectively, the drug and poloxamer constitute at least 50 wt % of the particles. At least a substantial portion of the drug in the composition is amorphous. The Tg of the drug is at least 50° C. Unless otherwise noted, as used herein the Tg refers to the Tg measured at less than 10% RH.
Such Tg values may represent that of drug dispersed in the amorphous portions of the poloxamer or the Tg of drug-rich phases or domains. […] The Tg of the drug may be at least about 60° C., at least about 70° C., or even at least about 80° C. The Tg of a drug can be determined using standard analytical techniques well known in the art, including by a dynamic mechanical analyzer (DMA), a dilatometer, a dielectric analyzer, and by differential scanning calorimetry (DSC).

[4] = in vitro dissolution test of Drug 3 compositions in PBS; assay type: physicochemical; conditions: for AUC / Drug 3 Concentration: 1000 μg/mL if all dissolved; for Drug 3 Concentration: 37° C.
[5] = in vitro dissolution test of Drug 5 particles in MFD solution; assay type: physicochemical; conditions: dose 120 μg/mL; for AUC / Drug 5 Concentration: MFD solution; for Drug 5 Concentration: 37° C.
Experimental: as §1
The so-formed particles were tested in vitro to ascertain concentration enhancement of Drug 5 as in Examples 1-2 at a dose of 120 μg/mL. Control C9 consisted of amorphous Drug 5 alone.
The concentration of drug obtained in these samples were used to determine the Cmax90 during the initial 90 minutes.

[6] = as above; assay type: physicochemical; conditions: dose 120 μg/mL; for Drug 5 Concentration: 37° C.
[7] = Drug 5, MFDS, initial 90 minutes

Cc1ncccc1CNC(=O)c1ccc2c(c1)CC[C@@H]1C[C@@](O)(CCC(F)(F)F)CC[C@@]21Cc1ccccc1 [Example C2, 2-phenanthrenecarboxamide,4b,5,6,7,8,8a,9,10-octahydro-7-hydroxy-N-[(2-methyl-3-pyridinyl)methyl]-4b-(phenylmethyl)-7-(3,3,3-trifluoropropyl)-, (4bS,7S,8aR)-]
AUC90 ([1]; Drug 2, MFD, initial 90 minutes): 100 µg·min/mL | Cmax90 ([1]; Drug 2, MFD, initial 90 minutes (MDC90 in the text)): 1000 ng/mL | AUC ([1]; Drug 2, time 0 min): 0 µg·min/mL | AUC ([1]; Drug 2, time 4 min): 0 µg·min/mL | AUC ([1]; Drug 2, time 10 min): 0 µg·min/mL | AUC ([1]; Drug 2, time 20 min): 0 µg·min/mL | AUC ([1]; Drug 2, time 40 min): 0 µg·min/mL | AUC ([1]; Drug 2, time 90 min): 100 µg·min/mL | AUC ([1]; Drug 2, time 1200 min): 3400 µg·min/mL | Drug 2 Concentration ([1]; time 0 min): 0 µg/mL | Drug 2 Concentration ([1]; time 4 min): 1 µg/mL | Drug 2 Concentration ([1]; time 10 min): 1 µg/mL | Drug 2 Concentration ([1]; time 20 min): 0 µg/mL | Drug 2 Concentration ([1]; time 40 min): 0 µg/mL | Drug 2 Concentration ([1]; time 90 min): 1 µg/mL | Drug 2 Concentration ([1]; time 1200 min): 5 µg/mL

CCC(CC)Nc1cc(C)nc(Oc2c(C)cc(C)cc2C)c1C [[3,6-dimethyl-2-(2,4,6-trimethyl-phenoxy)-pyridin-4-yl]-(1-ethyl-propyl)-amine]
logP [2]: 7

CC[C@@H]1C[C@H](N(Cc2cc(C(F)(F)F)cc(C(F)(F)F)c2)C(C)=O)c2cc(C(F)(F)F)ccc2N1C(=O)OC(C)C [[2R,4S] 4-[acetyl-(3,5-bis-trifluoromethyl-benzyl)-amino]-2-ethyl-6-trifluoromethyl-3,4-dihydro-2H-quinoline-1-carboxylic acid isopropyl ester]
logP [2]: 6.9

CCc1cc(Oc2cccc(N(Cc3cccc(OC(F)(F)C(F)F)c3)C[C@@H](O)C(F)(F)F)c2)ccc1Cl [Drug 5, (2R)-3-[[3-(4-chloro-3-ethylphenoxy)phenyl][[3-(1,1 ,2,2-tetrafluoroethoxy)phenyl]methyl]amino]-1,1,1-trifluoro-2-propanol]
Tg,drug ([3]; RH not stated): about −15 °C | Log P [2]: 10.1 | logP [2]: ~10

Cc1ncccc1CNC(=O)c1ccc2c(c1)CC[C@@H]1C[C@@](O)(CCC(F)(F)F)CC[C@@]21Cc1ccccc1 [Drug 2, 2-phenanthrenecarboxamide,4b,5,6,7,8,8a,9,10-octahydro-7-hydroxy-N-[(2-methyl-3-pyridinyl)methyl]-4b-(phenylmethyl)-7-(3,3,3-trifluoropropyl)-, (4bS,7S,8aR)-]
Tg [3]: 99 °C | Tg,drug ([3]; at 0% RH): 99 °C | Log P [2]: about 6.2

Cc1c(O)cccc1C(=O)N[C@@H](CSc1ccccc1)[C@H](O)CN1C[C@H]2CCCC[C@H]2C[C@H]1C(=O)NC(C)(C)C [Example C3, nelfinavir mesylate]
AUC90 ([4]; Drug 3, initial 90 minutes): 400 µg·min/mL | Cmax90 ([4]; Drug 3, initial 90 minutes (MDC90 in the text)): 6000 ng/mL | AUC ([4]; Drug 3, time 0 min): 0 µg·min/mL | AUC ([4]; Drug 3, time 4 min): 0 µg·min/mL | AUC ([4]; Drug 3, time 10 min): 0 µg·min/mL | AUC ([4]; Drug 3, time 20 min): 100 µg·min/mL | AUC ([4]; Drug 3, time 40 min): 200 µg·min/mL | AUC ([4]; Drug 3, time 90 min): 400 µg·min/mL | AUC ([4]; Drug 3, time 1200 min): 5100 µg·min/mL | Drug 3 Concentration ([4]; time 0 min): 0 µg/mL | Drug 3 Concentration ([4]; time 4 min): 5 µg/mL | Drug 3 Concentration ([4]; time 10 min): 5 µg/mL | Drug 3 Concentration ([4]; time 20 min): 6 µg/mL | Drug 3 Concentration ([4]; time 40 min): 6 µg/mL | Drug 3 Concentration ([4]; time 90 min): 4 µg/mL | Drug 3 Concentration ([4]; time 1200 min): 5 µg/mL

CCc1cc(Oc2cccc(N(Cc3cccc(OC(F)(F)C(F)F)c3)C[C@@H](O)C(F)(F)F)c2)ccc1Cl [Example C9, (2R)-3-[[3-(4-chloro-3-ethylphenoxy)phenyl][[3-(1,1 ,2,2-tetrafluoroethoxy)phenyl]methyl]amino]-1,1,1-trifluoro-2-propanol]
AUC90 [5, 7]: 1,400 min * μg/mL | Cmax90 [5, 7]: 29000 ng/mL | AUC ([5]; Drug 5, time 40 min): 330 µg·min/mL | AUC ([5]; Drug 5, time 90 min): 1,400 min * μg/mL | AUC ([5]; Drug 5, time 1200 min): 60,700 min * μg/mL | Drug 5 Concentration ([5]; time 0 min): 0 µg/mL | Drug 5 Concentration ([5]; time 40 min): 15 µg/mL | Drug 5 Concentration ([5]; time 90 min): 29 µg/mL | Drug 5 Concentration ([5]; time 1200 min): 78 µg/mL | AUC ([6]; Drug 5, time 0 min): 0 µg·min/mL | AUC ([6]; Drug 5, time 3.5 min): 5 µg·min/mL | AUC ([6]; Drug 5, time 7.25 min): 17 µg·min/mL | AUC ([6]; Drug 5, time 11 min): 34 µg·min/mL | AUC ([6]; Drug 5, time 20 min): 96 µg·min/mL | Drug 5 Concentration ([6]; time 3.5 min): 2.8 µg/mL | Drug 5 Concentration ([6]; time 7.25 min): 3.8 µg/mL | Drug 5 Concentration ([6]; time 11 min): 5.3 µg/mL | Drug 5 Concentration ([6]; time 20 min): 8.4 µg/mL

CCCc1nn(C)c2c(=O)[nH]c(-c3cc(S(=O)(=O)N4CCN(C)CC4)ccc3OCC)nc12 [1-[4-ethoxy-3-(6,7-dihydro-1-methyl-7-oxo-3-propyl-1H-pyrazolo[4,3-d]pyrimidin-5-yl)phenylsulphonyl]-4-methylpiperazine]
Tg [3]: 135 °C | logP [2]: 7

CCOC(=O)N1c2ccc(C(F)(F)F)cc2[C@@H](N(Cc2cc(C(F)(F)F)cc(C(F)(F)F)c2)C(=O)OC)C[C@H]1CC [Drug 4, [2R,4S] 4-[(3,5-bis-trifluoromethyl-benzyl)-methoxycarbonyl-amino]-2-ethyl-6-trifluoromethyl-3,4-dihydro-2H-quinoline-1-carboxylic acid ethyl ester]
Tg,drug ([3]; at ambient RH): about 28 °C | Log P [2]: 7.3 | logP [2]: ~7.5

Source: US8974823B2, “Solid compositions of low-solubility drugs and poloxamers” (Bend Research, Inc., priority 2003, dated 2015)
